Assay results from US8609715B2, “Heteroarylcarboxylic acid ester derivative” (Ajinomoto Co., Inc., priority 2009, dated 2013).
Structures can show the parent of a compound that is named as a salt.

Molecular target: recombinant human enteropeptidase (Homo sapiens (Human), UniProt P98073)
Assay: Measurement of enteropeptidase inhibitory activity
Type: biochemical
Conditions: Dixon plot
Description: Measurement of Enteropeptidase Inhibitory Activity
Using a 96 well plate (#3915, Costar), a test compound (25 μL), 400 mM Tris-HCl buffer (pH 8.0, 25 μL) and 0.5 mg/mL fluorescence enzyme substrate (Gly-Asp-Asp-Asp-Asp-Lys-β-Naphtylamide, 25 μL) were mixed, and recombinant human enteropeptidase (R&D Systems, Inc., 25 μL) was added. Using a fluorescence plate reader fmax (Molecular Devices, Inc.), the reaction rate was measured from the time-course changes at excitation wavelength 320 nm and fluorescence wavelength 405 nm. The Ki value was calculated from the concentration of the test compound, reciprocal of reaction rate, and Km value of the enzyme substrate, and by using Dixon plot.

Sequence of recombinant human enteropeptidase (P98073 whole entry): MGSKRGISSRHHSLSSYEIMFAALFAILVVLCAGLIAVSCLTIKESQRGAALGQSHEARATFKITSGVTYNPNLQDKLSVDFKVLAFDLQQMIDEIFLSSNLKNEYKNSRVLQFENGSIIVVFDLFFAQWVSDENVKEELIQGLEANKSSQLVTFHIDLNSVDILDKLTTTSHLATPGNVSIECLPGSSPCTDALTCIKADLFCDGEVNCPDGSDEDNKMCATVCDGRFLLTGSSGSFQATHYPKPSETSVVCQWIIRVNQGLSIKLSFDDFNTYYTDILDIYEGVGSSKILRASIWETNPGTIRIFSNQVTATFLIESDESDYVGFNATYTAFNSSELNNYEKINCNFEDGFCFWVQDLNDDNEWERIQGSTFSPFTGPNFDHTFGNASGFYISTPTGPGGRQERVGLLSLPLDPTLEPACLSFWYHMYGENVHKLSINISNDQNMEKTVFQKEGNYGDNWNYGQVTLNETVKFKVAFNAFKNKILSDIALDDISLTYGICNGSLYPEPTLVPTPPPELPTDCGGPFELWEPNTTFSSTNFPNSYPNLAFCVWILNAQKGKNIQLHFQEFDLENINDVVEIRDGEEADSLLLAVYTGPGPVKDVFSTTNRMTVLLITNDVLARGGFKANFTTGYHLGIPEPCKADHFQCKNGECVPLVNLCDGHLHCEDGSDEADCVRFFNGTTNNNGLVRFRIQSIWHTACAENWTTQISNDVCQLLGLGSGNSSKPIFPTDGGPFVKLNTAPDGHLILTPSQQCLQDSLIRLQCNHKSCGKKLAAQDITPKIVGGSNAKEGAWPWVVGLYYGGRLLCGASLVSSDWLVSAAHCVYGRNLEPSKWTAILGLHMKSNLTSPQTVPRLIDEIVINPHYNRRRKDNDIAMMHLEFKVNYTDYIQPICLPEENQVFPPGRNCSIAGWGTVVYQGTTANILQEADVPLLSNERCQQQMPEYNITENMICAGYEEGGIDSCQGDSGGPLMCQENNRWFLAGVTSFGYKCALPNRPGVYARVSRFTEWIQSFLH

SMILES	Ki [nM]
CC(Cc1ccc(C(=O)Oc2ccc(C(=N)N)cc2)o1)C(=O)NCCc1ccccc1 (centres unmarked) [Compound A-47, 5-{2-methyl-2-[(2-phenylethyl)-carbamoyl]ethyl}furan-2-carboxylic acid 4-amidinophenyl ester trifluoroacetic acid salt]	1.9
CC(C)CCNC(=O)C(C)Cc1ccc(C(=O)Oc2ccc(C(=N)N)cc2)o1 (centres unmarked) [Compound A-48]	1.3
CC(Cc1ccc(C(=O)Oc2ccc(C(=N)N)cc2)o1)C(=O)NCCN(C)C (centres unmarked) [Compound A-49]	7.6
CC(Cc1ccc(C(=O)Oc2ccc(C(=N)N)cc2)o1)C(=O)NCCO (centres unmarked) [Compound A-50]	4.4
CC(Cc1ccc(C(=O)Oc2ccc(C(=N)N)cc2)o1)C(=O)N1CCCC1 (centres unmarked) [Compound A-51]	4.9
CC(Cc1ccc(C(=O)Oc2ccc(C(=N)N)cc2)o1)C(=O)N1CCCC(C(=O)O)C1 (centres unmarked) [Compound A-52, N-{3-[5-(4-amidinophenoxycarbonyl)-furan-2-yl]-2-methylpropanoyl}nipecotic acid trifluoroacetic acid salt]	2.5
C=CCN(CC(=O)O)C(=O)CCc1ccc(C(=O)Oc2ccc(C(=N)N)cc2)o1 [Compound A-55, N-{3-[5-(4-amidinophenoxycarbonyl)-furan-2-yl]-propionyl}-N-allylglycine trifluoroacetic acid salt]	1.3
CC(Cc1ccc(C(=O)Oc2ccc(C(=N)N)cc2)o1)C(=O)NCP(=O)(O)O (centres unmarked) [Compound A-56]	1.1
CC(Cc1ccc(C(=O)Oc2ccc(C(=N)N)cc2)o1)C(=O)N[C@@H](CS(=O)(=O)O)C(=O)O (some centres unmarked) [Compound A-57]	0.39
CC(CCC(=O)O)Cc1ccc(C(=O)Oc2ccc(C(=N)N)cc2)o1 (centres unmarked) [Compound A-58, 5-[5-(4-amidinophenoxycarbonyl)furan-2-yl]-4-methylpentanoic acid trifluoroacetic acid salt]	0.7
CC(CCC(=O)N[C@@H](CC(=O)O)C(=O)O)Cc1ccc(C(=O)Oc2ccc(C(=N)N)cc2)o1 (stereo partly drawn) [Compound A-59, N-{5-[5-(4-amidinophenoxycarbonyl)furan-2-yl]-4-methylpentanoyl}-L-aspartic acid trifluoroacetic acid salt]	0.35
N=C(N)c1ccc(OC(=O)c2ccc(CC(CCC(=O)O)C(=O)O)o2)cc1 (centres unmarked) [Compound A-60, 5-[5-(4-amidinophenoxycarbonyl)furan-2-yl]-4-carboxypentanoic acid trifluoroacetic acid salt]	0.31
N=C(N)c1ccc(OC(=O)c2ccc(CC(CCC(=O)O)C(=O)N[C@@H](CC(=O)O)C(=O)O)o2)cc1 (stereo partly drawn) [Compound A-61, N-{3-[5-(4-amidinophenoxycarbonyl)-furan-2-yl]-2-(carboxyethyl)propanoyl}-L-aspartic acid trifluoroacetic acid salt]	0.42
CC(Cc1cc(C(=O)Oc2ccc(C(=N)N)cc2)co1)C(=O)N[C@@H](CC(=O)O)C(=O)O (stereo partly drawn) [Compound A-62, N-{3-[4-(4-amidinophenoxycarbonyl)-furan-2-yl]-2-methylpropanoyl}-L-aspartic acid trifluoroacetic acid salt]	2.1
CC(Cc1cc(C(=O)Oc2ccc(C(=N)N)cc2F)co1)C(=O)O (centres unmarked) [Compound A-63, 3-[4-(4-amidino-2-fluorophenoxycarbonyl)furan-2-yl]-2-methylpropanoic acid trifluoroacetic acid salt]	0.53
CC(Cc1cc(C(=O)Oc2ccc(C(=N)N)cc2)co1)C(=O)NCP(=O)(O)O (centres unmarked) [Compound A-64]	2.5
CC(Cc1cc(C(=O)Oc2ccc(C(=N)N)cc2)co1)C(=O)N[C@@H](CS(=O)(=O)O)C(=O)O (some centres unmarked) [Compound A-65]	1
CC(Cc1cc(C(=O)Oc2ccc(C(=N)N)cc2F)co1)C(=O)N[C@@H](CC(=O)O)C(=O)O (some centres unmarked) [Compound A-66]	0.32
CC(Cc1coc(C(=O)Oc2ccc(C(=N)N)cc2)c1)C(=O)N[C@@H](CC(=O)O)C(=O)O (stereo partly drawn) [Compound A-67, N-[3-[2-(4-amidinophenoxycarbonyl)-furan-4-yl]-2-methylpropanoyl]-L-aspartic acid trifluoroacetic acid salt]	0.52
N=C(N)c1ccc(OC(=O)c2ccc(-c3ccc(C(=O)N[C@@H](CC(=O)O)C(=O)O)cc3)o2)cc1 [Compound A-68, N-{4-[5-(4-amidinophenoxycarbonyl)-furan-2-yl]benzoyl}-L-aspartic acid trifluoroacetic acid salt]	2.2
N=C(N)c1ccc(OC(=O)c2ccc(-c3ccc(C(=O)NCC(=O)O)cc3)o2)cc1 [Compound A-69]	4.7
N=C(N)c1ccc(OC(=O)c2ccc(-c3ccc(C(=O)NCP(=O)(O)O)cc3)o2)cc1 [Compound A-70]	2.7
N=C(N)c1ccc(OC(=O)c2ccc(-c3cccc(C(=O)N[C@@H](CC(=O)O)C(=O)O)c3)o2)cc1 [Compound A-71, N-{3-[5-(4-amidinophenoxycarbonyl)-furan-2-yl]benzoyl}-L-aspartic acid trifluoroacetic acid salt]	1.6
CC(Cc1ccc(C(=O)Oc2ccc(C(=N)N)cc2)o1)C(=O)SC(CC(=O)O)C(=O)O (stereo not drawn) [Compound A-73, S-{3-[5-(4-amidinophenoxycarbonyl)-furan-2-yl]-2-methylpropionyl}thiomalic acid trifluoroacetic acid salt]	0.88

SMILES	Ki [nM]
CC(Cc1ccc(C(=O)Oc2ccc(C(=N)N)cc2)o1)C(=O)NN(CC(=O)O)CC(=O)O (centres unmarked) [Compound A-74, (N′-carboxymethyl-{3-[5-(4-amidinophenoxycarbonyl)furan-2-yl]-2-methylpropane}hydrazido)-acetic acid trifluoroacetic acid salt]	2.6
C/C(=C\c1ccc(C(=O)Oc2ccc(C(=N)N)cc2)s1)C(=O)NCC(=O)O [Compound B-2]	9.29
C/C(=C\c1ccc(C(=O)Oc2ccc(C(=N)N)cc2)s1)C(=O)N[C@@H](CO)C(=O)O [Compound B-3]	5.72
CC(Cc1ccc(C(=O)Oc2ccc(C(=N)N)cc2)s1)C(=O)O (centres unmarked) [Compound B-6, 3-[5-(4-amidinophenoxycarbonyl)-thiophen-2-yl]-2-methylpropanoic acid trifluoroacetic acid salt]	1.44
C/C(=C\c1ccc(C(=O)Oc2ccc(C(=N)N)cc2)s1)C(=O)N(CCCO)CCS(=O)(=O)O [Compound B-7, N-{(2E)-3-[5-(4-amidinophenoxycarbonyl)thiophen-2-yl]-2-methylpropenoyl}-N-hydroxypropyltaurine trifluoroacetic acid salt]	2.15
C/C(=C\c1ccc(C(=O)Oc2ccc(C(=N)N)cc2[N+](=O)[O-])s1)C(=O)O [Compound B-8]	0.84
CC(Cc1ccc(C(=O)Oc2ccc(C(=N)N)cc2[N+](=O)[O-])s1)C(=O)N(CCCO)CC(=O)O (centres unmarked) [Compound B-11, N-{3-[5-(4-amidino-2-nitrophenoxycarbonyl)thiophen-2-yl]-2-methylpropanoyl}-N-(3-hydroxypropyl)glycine hydrochloride]	1.41
CC(Cc1ccc(C(=O)Oc2ccc(C(=N)N)cc2)s1)C(=O)NCC(=O)O (centres unmarked) [Compound B-12]	2.21
CC(Cc1ccc(C(=O)Oc2ccc(C(=N)N)cc2Br)s1)C(=O)O (centres unmarked) [Compound B-16, 3-[5-(4-amidino-2-bromophenoxycarbonyl)thiophen-2-yl]-2-methylpropionic acid trifluoroacetic acid salt]	0.29
CC(Cc1ccc(C(=O)Oc2ccc(C(=N)N)cc2Cl)s1)C(=O)O (centres unmarked) [Compound B-17]	0.42
CC(Cc1ccc(C(=O)Oc2ccc(C(=N)N)cc2F)s1)C(=O)O (centres unmarked) [Compound B-19]	0.42
CC(Cc1ccc(C(=O)Oc2ccc(C(=N)N)cc2F)s1)C(=O)N[C@@H](CC(=O)O)C(=O)O (some centres unmarked) [Compound B-20]	0.28
CC(Cc1ccc(C(=O)Oc2ccc(C(=N)N)cc2F)s1)C(=O)N[C@@H](CCC(=O)O)C(=O)O (some centres unmarked) [Compound B-21]	0.56
CC(Cc1ccc(C(=O)Oc2ccc(C(=N)N)cc2F)s1)C(=O)N[C@H](CC(=O)O)C(=O)O (some centres unmarked) [Compound B-22]	0.5
CC(Cc1ccc(C(=O)Oc2ccc(C(=N)N)c(F)c2)s1)C(=O)O (centres unmarked) [Compound B-24]	0.49
C[C@H](Cc1ccc(C(=O)Oc2ccc(C(=N)N)cc2F)s1)C(=O)N[C@@H](CC(=O)O)C(=O)O [Compound B-25, N-{3-[5-(4-amidino-2-fluorophenoxycarbonyl)thiophen-2-yl]-2R-methylpropionyl}-L-aspartic acid trifluoroacetic acid salt]	0.79
CC(C)C[C@H](Cc1ccc(C(=O)Oc2ccc(C(=N)N)cc2F)s1)C(=O)N[C@@H](CC(=O)O)C(=O)O [Compound B-26, N-{3-[5-(4-amidino-2-fluorophenoxycarbonyl)thiophen-2-yl]-2R-isobutylpropionyl}-L-aspartic acid trifluoroacetic acid salt]	2.2
CC(C)C[C@@H](Cc1ccc(C(=O)Oc2ccc(C(=N)N)cc2F)s1)C(=O)N[C@@H](CC(=O)O)C(=O)O [Compound B-27]	0.95
CCC[C@H](Cc1ccc(C(=O)Oc2ccc(C(=N)N)cc2F)s1)C(=O)N[C@@H](CC(=O)O)C(=O)O [Compound B-28]	1.1
CCC[C@@H](Cc1ccc(C(=O)Oc2ccc(C(=N)N)cc2F)s1)C(=O)N[C@@H](CC(=O)O)C(=O)O [Compound B-29]	0.58
CC(Cc1ccc(C(=O)Oc2ccc(C(=N)N)c(F)c2)s1)C(=O)N[C@@H](CC(=O)O)C(=O)O (some centres unmarked) [Compound B-30]	0.52
N=C(N)c1ccc(OC(=O)c2ccc(CCC(=O)N[C@@H](CC(=O)O)C(=O)O)s2)c(F)c1 [Compound B-32, N-{3-[5-(4-amidino-2-fluorophenoxycarbonyl)thiophen-2-yl]propanoyl}-L-aspartic acid trifluoroacetic acid salt]	0.31
CCCC(Cc1ccc(C(=O)Oc2ccc(C(=N)N)cc2)s1)C(=O)N[C@@H](CC(=O)O)C(=O)O (some centres unmarked) [Compound B-33]	2.8
